Values joined by “and” are separate entries in the source; they are usually repeats but may differ in a detail not shown here. Equal values may be shown once.
Tests used:
[1] = DPPH free radical scavenging assay; assay type: biochemical
Method: (§1) In accordance with the procedure described in the literature, the ABTS activity assay was applied to evaluate the free radical scavenging capabilities of the synthesized compounds (1–6). ABTS solution was prepared by mixing 7 mM ABTS and 2.45 mM potassium persulfate and was then placed for 16 h under dark at room temperature. A methanol dilution was performed on the solution to achieve an absorbance of 0.706 ± 0.001 at 734 nm before starting the assay. To quantify the assay, 3 mL of the ABTS solution has been added to different concentrations (ranging from 62.5 to 1000 μg/mL) of every compound (300 μL) that were dissolved in methanol. Then after 1 min of incubation, the absorbance was continuously measured for 5 min. To confirm precision, all experiments were conducted in triplicate. The antioxidant capacities of the compounds were assessed with gallic acid as a reference, and the ability to remove free radicals was calculated as a percentage for each compound employing Equation.1 as presented below. Additionally, the DPPH free radical scavenging method was employed to assess the antioxidant activity of compounds (1–6), in accordance with a widely recognized procedure documented in existing literature. Concentrations ranging from 62.5 to 1000 μg/mL of compounds (1–6), dissolved in methanol, were introduced into a 2 mL solution of DPPH (0.002 % in methanol). The resulting solutions were kept in the dark at room temperature for a duration of 30 min. The amount of light absorbed by the solutions was then determined using a UV/vis spectrophotometer at a wavelength of 517 nm. The investigations were performed three times, using the exact protocol described for the ABTS scavenging assay. Afterwards, the antioxidant capabilities of each molecule were assessed using calculation.(1) Scavengingactivity(%)=A−B/A×100
(§2) Where, A = absorbance of ABTS/DPPH and B = absorbance of solution containing ABTS/DPPH and test samples.

[2] = ABTS free radical scavenging assay; assay type: biochemical
Method: as §1, §2

E. coli = experiment: Antibacterial agar well diffusion; assay type: cell-based, Escherichia coli (ATCC25922); settings: Escherichia coli, 24 h, 6.25 mg/mL per well, 37 °C
Description: (§3) The antibacterial assay was done for all compounds (1–6) as described in previous studies. The mean number of viable organisms per milliliter of stock suspensions containing Escherichia coli (ATCC25922), Pseudomonas aeruginosa (ATCC27853), Salmonella typhi (ATCC0650), and Staphylococcus aureus (NCTC25953) was uncovered using the surface viable counting method. Preparations of suspensions containing approximately 108–109 colony forming units (CFU) per milliliter were made. Aseptic nutritional agar was formulated and transferred onto petri dishes. Cultures of bacteria were uniformly distributed on agar surface using sterile brush sticks. Five wells, each with a diameter of 6 mm, were made in each plate using a sterile borer. Afterwards, a concentration of 6.25 mg/mL of each component was applied to separate wells. Cephradine, a readily accessible antibiotic, was employed as a reference standard at an equivalent concentration. Following sealing, the agar dishes were incubated at a controlled temperature of 37 °C for a period of 24 h. The zone of inhibition in the plates was determined, which represents the inhibition of bacterial growth. Each sample zone of inhibition diameter was evaluated, and the antibacterial effectiveness of each drug was quantified according to the mean diameter of the inhibition zone (in millimetres).

S. typhi = experiment: Antibacterial agar well diffusion; assay type: cell-based, Salmonella typhi (ATCC0650); settings: Salmonella enterica, TYPHI, 24 h, 6.25 mg/mL per well, 37 °C
Description: as §3

S. flexenari = experiment: Antibacterial agar well diffusion; assay type: cell-based; settings: 24 h, 6.25 mg/mL per well, 37 °C
P. aeruginosa = experiment: Antibacterial agar well diffusion; assay type: cell-based, Pseudomonas aeruginosa (ATCC27853); settings: Pseudomonas aeruginosa, 24 h, 6.25 mg/mL per well, 37 °C
Description: as §3

[3] = biological target: T1, acetylcholinesterase (AChE) (Electrophorus electricus, UniProt O42275); experiment: biochemical; settings: for inhibition at 62.5 µg/mL / inhibition at 125 µg/mL / inhibition at 250 µg/mL / inhibition at 500 µg/mL / inhibition at 1000 µg/mL: read-out: AChE Percent inhibition
T1 construct: The AChE was derived from the electric eel, while BChE was obtained from equineserum; from tissue; host or cells: electric eel (tissue not specified)
Method: (§4) This assay employed two enzymes, namely acetylcholinesterase (AChE) and butyryl cholinesterase (BChE). The AChE was derived from the electric eel, while BChE was obtained from equineserum. The synthesized compounds were dissolved in phosphate buffer (0.1 M, pH 8.0). The enzymes AChE (518 U/mg) and BChE (7–16 U/mg) were diluted in a 0.1 M phosphate buffer to achieve concentrations of 0.03 U/mL and 0.01 U/mL, respectively. Preparations of ATchI (0.5 mM), DTNB (0.2273 mM), and BTchI (0.5 mM) were made in distilled water and stored at a low temperature of 8 °C. […] The solution was heated to 30 °C for 15 min, followed by the gradual addition of the substrate. Absorbance of the heated sample at 412 nm was measured using a double beam spectrophotometer. […] The percentage activity (A) and inhibition of the enzyme were determined by applying the rate of absorption as a function of time (V=ΔAbs/Δt) using the following equation (Equation (2)).(2) %Inhibition=V/Vmax×100 Where V = enzyme inhibition activity of products and Vmax = enzyme activity without test of product.

[4] = biological target: T2, butyryl cholinesterase (BChE) (Equus caballus, UniProt P81908); experiment: Anticholinesterase assay (Elman's test), BChE; assay type: biochemical; settings: for inhibition at 62.5 µg/mL / inhibition at 125 µg/mL / inhibition at 250 µg/mL / inhibition at 500 µg/mL / inhibition at 1000 µg/mL: read-out: BChE Percent inhibition
T2 construct: The AChE was derived from the electric eel, while BChE was obtained from equineserum; from tissue; host or cells: equine serum
Method: as §4

T1 sequence (O42275 24-633): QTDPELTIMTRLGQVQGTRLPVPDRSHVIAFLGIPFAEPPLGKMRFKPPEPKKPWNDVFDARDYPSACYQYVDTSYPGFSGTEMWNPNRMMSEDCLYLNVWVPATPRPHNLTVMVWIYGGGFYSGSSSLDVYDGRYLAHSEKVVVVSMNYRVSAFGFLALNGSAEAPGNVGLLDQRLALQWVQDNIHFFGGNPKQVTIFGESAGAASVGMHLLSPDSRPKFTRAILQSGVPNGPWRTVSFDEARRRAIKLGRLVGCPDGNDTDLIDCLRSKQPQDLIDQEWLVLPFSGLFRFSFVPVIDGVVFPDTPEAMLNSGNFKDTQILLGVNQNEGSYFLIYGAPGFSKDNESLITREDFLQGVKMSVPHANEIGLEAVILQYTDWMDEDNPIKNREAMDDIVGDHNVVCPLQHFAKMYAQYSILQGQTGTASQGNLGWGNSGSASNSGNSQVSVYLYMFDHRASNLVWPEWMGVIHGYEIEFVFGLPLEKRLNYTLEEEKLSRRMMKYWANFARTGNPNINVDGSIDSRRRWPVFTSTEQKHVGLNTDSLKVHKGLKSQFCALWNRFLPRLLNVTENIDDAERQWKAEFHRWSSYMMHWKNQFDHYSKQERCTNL
T2 sequence (P81908 whole entry): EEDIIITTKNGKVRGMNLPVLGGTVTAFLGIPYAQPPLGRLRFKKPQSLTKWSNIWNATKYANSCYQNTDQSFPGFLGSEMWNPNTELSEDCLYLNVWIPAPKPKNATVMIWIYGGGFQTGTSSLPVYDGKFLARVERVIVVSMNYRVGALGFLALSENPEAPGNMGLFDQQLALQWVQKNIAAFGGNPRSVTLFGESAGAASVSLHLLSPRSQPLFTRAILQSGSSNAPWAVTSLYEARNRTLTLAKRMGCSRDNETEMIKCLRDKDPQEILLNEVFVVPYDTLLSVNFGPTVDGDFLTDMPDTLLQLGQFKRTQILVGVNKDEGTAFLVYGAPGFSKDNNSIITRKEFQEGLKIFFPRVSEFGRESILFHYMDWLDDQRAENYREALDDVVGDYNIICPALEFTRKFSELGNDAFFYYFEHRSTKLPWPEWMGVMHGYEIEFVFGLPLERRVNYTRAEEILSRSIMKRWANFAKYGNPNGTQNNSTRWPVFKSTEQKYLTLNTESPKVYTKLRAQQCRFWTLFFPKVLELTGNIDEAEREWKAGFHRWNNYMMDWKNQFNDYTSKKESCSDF

Q: What does the source list for S=C(Nc1ccc(Cl)cc1)NC1CCCCC1 [Compound 4, 1-(4-chlorophenyl)-3-cyclohexylthiourea]?
A: DPPH IC50 [1]: 67.11 µg/mL; DPPH %inhibition ([1]; 62.5 μg/mL): 48.18 ± 2.31%; DPPH %inhibition ([1]; 125 μg/mL): 54.67 ± 2.08%; DPPH %inhibition ([1]; 250 μg/mL): 63.74 ± 0.81%; DPPH %inhibition ([1]; 500 μg/mL): 72.29 ± 0.27%; DPPH %inhibition ([1]; 1000 μg/mL): 82.11 ± 1.20%; ABTS IC50 [2]: 67.01 µg/mL; ABTS %inhibition ([2]; 62.5 μg/mL): 48.19 ± 1.26%; ABTS %inhibition ([2]; 250 μg/mL): 61.14 ± 1.43%; ABTS %inhibition ([2]; 500 μg/mL): 71.03 ± 1.61%; ABTS %inhibition ([2]; 1000 μg/mL): 81.23 ± 1.01%; zone of inhibition at 6250 µg/mL (E. coli): 12 mm; zone of inhibition at 6250 µg/mL (S. typhi): 11.5 mm; zone of inhibition at 6250 µg/mL (S. flexenari): 13 mm; zone of inhibition at 6250 µg/mL (P. aeruginosa): 10 mm; IC50 [3]: 928 µM; inhibition at 62.5 µg/mL [3]: 31.9 ± 0.48%; inhibition at 125 µg/mL [3]: 39 ± 0.48%; inhibition at 250 µg/mL [3]: 47.9 ± 0.96%; inhibition at 500 µg/mL [3]: 61.6 ± 1.34%; inhibition at 1000 µg/mL [3]: 69.6 ± 1.12%; IC50 [4]: 814 µM; inhibition at 62.5 µg/mL [4]: 33 ± 1.15%; inhibition at 125 µg/mL [4]: 42.7 ± 0.89%; inhibition at 250 µg/mL [4]: 49 ± 0.58%; inhibition at 500 µg/mL [4]: 63.03 ± 0.23%; inhibition at 1000 µg/mL [4]: 71.33 ± 0.49%

Q: With S=C(Nc1ccccn1)NC1CCCCC1 [Compound 1, 1-cyclohexyl-3-(pyridin-2-yl) thiourea] as the molecule, how does the “DPPH IC50” value [1] read?
A: The value was 63.02 µg/mL.

Q: And the DPPH %inhibition ([1]; 62.5 μg/mL)?
A: The DPPH %inhibition was 48.57 ± 2.03%.

Q: What about the DPPH %inhibition ([1]; 125 μg/mL) of the same molecule?
A: The DPPH %inhibition was 54.32 ± 1.89%.

Q: What about the DPPH %inhibition ([1]; 250 μg/mL) of the same molecule?
A: Its DPPH %inhibition is 63.01 ± 1.65%.

Q: And the DPPH %inhibition ([1]; 500 μg/mL)?
A: The DPPH %inhibition was 75.63 ± 2.60%.

Q: What about the DPPH %inhibition ([1]; 1000 μg/mL) of the same molecule?
A: Its DPPH %inhibition is 85.10 ± 1.45%.

Q: And the “ABTS IC50” value [2]?
A: Its value is 67.08 µg/mL.

Q: And the ABTS %inhibition ([2]; 62.5 μg/mL)?
A: The ABTS %inhibition was 47.65 ± 1.74%.

Q: And the ABTS %inhibition ([2]; 125 μg/mL)?
A: Its ABTS %inhibition is 54.45 ± 0.96%.

Q: And the ABTS %inhibition ([2]; 250 μg/mL)?
A: Its ABTS %inhibition is 63.59 ± 2.50%.

Q: And the ABTS %inhibition ([2]; 500 μg/mL)?
A: Its ABTS %inhibition is 72.20 ± 1.90%.

Q: What about the ABTS %inhibition ([2]; 1000 μg/mL) of the same molecule?
A: The ABTS %inhibition was 84.81 ± 1.17%.

Q: And the zone of inhibition at 6250 µg/mL (E. coli)?
A: Its zone of inhibition at 6250 µg/mL is 9.5 mm.

Q: And the zone of inhibition at 6250 µg/mL (S. typhi)?
A: Its zone of inhibition at 6250 µg/mL is 10 mm.

Q: And the zone of inhibition at 6250 µg/mL (S. flexenari)?
A: Its zone of inhibition at 6250 µg/mL is 8.5 mm.

Q: And the zone of inhibition at 6250 µg/mL (P. aeruginosa)?
A: Its zone of inhibition at 6250 µg/mL is 9 mm.

Q: What about the IC50 [3] of the same molecule?
A: Its IC50 is 115 µM and 117 µM.

Q: What about the inhibition at 62.5 µg/mL [3] of the same molecule?
A: The inhibition at 62.5 µg/mL was 62.44 ± 0.58%.

Q: What about the inhibition at 125 µg/mL [3] of the same molecule?
A: The inhibition at 125 µg/mL was 67.6 ± 1.73%.

Q: And the inhibition at 250 µg/mL [3]?
A: Its inhibition at 250 µg/mL is 74.3 ± 2.15%.

Q: What about the inhibition at 500 µg/mL [3] of the same molecule?
A: Its inhibition at 500 µg/mL is 81.7 ± 1.34%.

Q: What about the inhibition at 1000 µg/mL [3] of the same molecule?
A: Its inhibition at 1000 µg/mL is 88.6 ± 1.12%.

Q: What about the IC50 [4] of the same molecule?
A: Its IC50 is 96 µM.

Q: And the inhibition at 62.5 µg/mL [4]?
A: The inhibition at 62.5 µg/mL was 65.8 ± 1.5%.

Q: And the inhibition at 125 µg/mL [4]?
A: The inhibition at 125 µg/mL was 71.6 ± 1.06%.

Q: And the inhibition at 250 µg/mL [4]?
A: The inhibition at 250 µg/mL was 76.42 ± 0.43%.

Q: And the inhibition at 500 µg/mL [4]?
A: The inhibition at 500 µg/mL was 84.2 ± 1.83%.

Q: And the inhibition at 1000 µg/mL [4]?
A: The inhibition at 1000 µg/mL was 91.76 ± 0.71%.
